# Results: ChEMBL document CHEMBL4483862, “Open-source discovery of chemical leads for next-generation chemoprotective antimalarials” (2018)
# Test system: Plasmodium berghei
# Experiment: Luciferase/luciferin-expressing antifolate-resistant parasites were used to infect a culture of HepG2 cells that were pre-incubated with compounds. Infected hepatocytes emit light due to the luciferase reaction. Assay results are presented as the percent inhibition of light emission compared to control. […]
# Type: functional
# Details: sporozoite; for IC90: read-out: LUCIFERASE INFECTION ASSAY - IC90
# [1] = read-out: LUCIFERASE INFECTION ASSAY - IC50
SMILES,IC90,further results
Clc1ccc2c(NCc3ccc(CN4CCOCC4)cc3)ccnc2c1,4.14 µM,"IC50 (HEPG2TOX_HILL_SLOPE 2.51, 1.28, HEPG2TOX_R_SQUARED 0.778, 0.972, PBLUC_HILL_SLOPE 2.92, 9.52, PBLUC_R_SQUARED 0.401, 0.159, read-out: LUCIFERASE INFECTION ASSAY - IC50): 4.34 µM"
CC(C)c1cccc(Nc2nnc(C(O)c3cccc(N(C)C)c3)s2)c1 (centres undefined),> 10 µM,"IC50 (HEPG2TOX_HILL_SLOPE 0.177, HEPG2TOX_R_SQUARED 0.124, PBLUC_HILL_SLOPE 3.19, PBLUC_R_SQUARED 0.0119, read-out: LUCIFERASE INFECTION ASSAY - IC50): > 10 µM"
CCSc1ncc(-c2nnnn2-c2ccccc2)c(-c2ccccc2)n1,> 9.16 µM,"IC50 (FFLUC_HILL_SLOPE 12.6, FFLUC_R_SQUARED 0.17, read-out: LUCIFERASE INFECTION ASSAY - IC50): > 9.16 µM"
CC(C)NC(=O)C1(C)CCN1C(=O)c1ccc(-c2ccccc2)cc1 (centres undefined),> 9.81 µM,"IC50 (PBLUC_HILL_SLOPE 1.28, PBLUC_R_SQUARED 0.251, read-out: LUCIFERASE INFECTION ASSAY - IC50): > 9.81 µM"
Cc1cc(O)c(CN2CCN(S(=O)(=O)/C=C/c3ccccc3)CC2)cc1C(C)C,> 10 µM,IC50 [1]: > 10 µM
O=C(Nc1ccc(N2CCOCC2)cc1)c1cccc(-c2nn[nH]n2)c1,> 10 µM,IC50 [1]: > 10 µM
O=C(c1cnc(Nc2cccc(Cc3ccccc3)c2)[nH]1)c1ccccc1O,> 8.93 µM,"IC50 (PBLUC_HILL_SLOPE 2.54, PBLUC_R_SQUARED 0.464, read-out: LUCIFERASE INFECTION ASSAY - IC50): 6.19 µM"
CCOC(=O)c1c(C)oc2nc(CN(C)Cc3ccc(OCC)cc3)nc(N)c12,8.75 µM,"IC50 (PBLUC_HILL_SLOPE 4.1, PBLUC_R_SQUARED 0.674, read-out: LUCIFERASE INFECTION ASSAY - IC50): 5.12 µM"
CCOc1c(Br)cc(/C=C2/C(=O)N(C)c3ccccc32)cc1OC,> 10 µM,"IC50 (HEPG2TOX_HILL_SLOPE 13, HEPG2TOX_R_SQUARED 0.388, read-out: LUCIFERASE INFECTION ASSAY - IC50): > 10 µM"
Cc1cc(C)cc(N(C(=O)Cc2coc3cc(C)ccc23)c2nc(-c3ccc(F)cc3)cs2)c1,> 10 µM,IC50 [1]: > 10 µM
C(=C(c1nc2ccccc2s1)c1nc2ccccc2s1)c1ccc(N2CCOCC2)cc1,3.63 µM,IC50 [1]: 0.749 µM
CCOc1cc(/C=C(/C(=O)NCc2ccc(Cl)cc2)c2nc3ccccc3[nH]2)ccc1OC,> 10 µM,"IC50 (HEPG2TOX_HILL_SLOPE 5.77, HEPG2TOX_R_SQUARED 0.35, PBLUC_HILL_SLOPE 0.685, PBLUC_R_SQUARED 0.126, read-out: LUCIFERASE INFECTION ASSAY - IC50): > 10 µM"
C=C1N(C)c2ccc(NC(=O)c3ccccc3)cc2C1(C)C,3.46 µM,"IC50 (FFLUC_HILL_SLOPE 13, FFLUC_R_SQUARED 0.522, HEPG2TOX_HILL_SLOPE 2.51, HEPG2TOX_R_SQUARED 0.97, PBLUC_HILL_SLOPE 14.6, PBLUC_R_SQUARED 0.431, read-out: LUCIFERASE INFECTION ASSAY - IC50): 2.98 µM"
CC(C)(C)c1ccc(-n2c(SCc3ccc(Cl)cc3)nnc2-c2ccccc2Cl)cc1,> 7.04 µM,"IC50 (PBLUC_HILL_SLOPE 3.18, PBLUC_R_SQUARED 0.744, read-out: LUCIFERASE INFECTION ASSAY - IC50): > 7.04 µM"
CN(C)CCNC(=O)c1cccc(-c2cnc3ccc(-c4cccs4)nn23)c1,3.6 µM,
O=C(Nc1ccc(Cl)cc1)N1CCCN(Cc2ccc(Br)cc2F)CC1,> 7.49 µM,"IC50 (PBLUC_HILL_SLOPE 1.86, PBLUC_R_SQUARED 0.575, read-out: LUCIFERASE INFECTION ASSAY - IC50): 2.95 µM"
O=C(Cn1cnc2sc(-c3ccccc3)cc2c1=O)Nc1nc(CN2CCCCC2)cs1,> 10 µM,IC50 [1]: > 10 µM
CCOC(=O)c1cc(-c2ccc(OC)cc2)nn1-c1cccc(C)c1,> 10 µM,"IC50 (PBLUC_HILL_SLOPE 0.992, PBLUC_R_SQUARED 0.815, read-out: LUCIFERASE INFECTION ASSAY - IC50): > 10 µM"
COc1ccc(-c2cnc(N)c(-c3ccc(O)c(OC)c3)c2)cc1,3.77 µM,"IC50 (HEPG2TOX_HILL_SLOPE 8.61, HEPG2TOX_R_SQUARED 0.753, PBLUC_HILL_SLOPE 13.4, PBLUC_R_SQUARED 0.628, read-out: LUCIFERASE INFECTION ASSAY - IC50): 3.2 µM"
COc1ccc(C(OC(=O)c2ccccc2)c2nccc3ccccc23)cc1 (centres undefined),> 8.93 µM,"IC50 (HEPG2TOX_HILL_SLOPE 1.92, HEPG2TOX_R_SQUARED 0.889, PBLUC_HILL_SLOPE 0.417, PBLUC_R_SQUARED 0.183, read-out: LUCIFERASE INFECTION ASSAY - IC50): 5.78 µM"

SMILES,IC90,further results
CC(C)[C@H](NS(=O)(=O)c1ccccc1)C(=O)NCc1ccccc1,> 9.53 µM,IC50 [1]: > 9.53 µM
COc1ccc(C(=O)Nc2ccc3nc(-c4ccccc4OC)nn3c2)cc1OC,> 10 µM,IC50 [1]: > 10 µM
COc1ccc(S(=O)(=O)NN(C)c2nc(C(F)(F)F)nc3ccccc23)cc1,7.15 µM,"IC50 (HEPG2TOX_HILL_SLOPE 2.85, HEPG2TOX_R_SQUARED 0.931, PBLUC_HILL_SLOPE 2.16, PBLUC_R_SQUARED 0.738, read-out: LUCIFERASE INFECTION ASSAY - IC50): 2.59 µM"
Cc1ccc(Cn2cc(/C=C/C(=O)Nc3ccn(C)n3)c(-c3ccccc3)n2)cc1,5.35 µM,"IC50 (PBLUC_HILL_SLOPE 23.0, 1.63, PBLUC_R_SQUARED 0.221, 0.716, read-out: LUCIFERASE INFECTION ASSAY - IC50): 5.32 µM"
O=c1c(Cl)c(Cl)cnn1-c1ccccc1,> 13.7 µM,"IC50 (HEPG2TOX_HILL_SLOPE 16.5, HEPG2TOX_R_SQUARED 0.386, read-out: LUCIFERASE INFECTION ASSAY - IC50): > 13.7 µM"
CC(C)CNC(=O)NC(=O)COC(=O)c1c2c(nc3ccccc13)CCCCC2,7.96 µM,IC50 [1]: 3.9 µM
CC(C)(C)NC(=S)N/N=C/c1ncc(C(F)(F)F)cc1Sc1ccc(Cl)cc1,4.33 µM,"IC50 (FFLUC_HILL_SLOPE 15.8, FFLUC_R_SQUARED 0.683, HEPG2TOX_HILL_SLOPE 2.2, HEPG2TOX_R_SQUARED 0.982, PBLUC_HILL_SLOPE 3.41, PBLUC_R_SQUARED 0.827, read-out: LUCIFERASE INFECTION ASSAY - IC50): 2.27 µM"
COc1ccc(-c2[nH]c3ccc(F)cc3c2CCC(=O)NCc2nnc3ccccn23)cc1,> 10 µM,"IC50 (PBLUC_HILL_SLOPE 1.44, 1.44, PBLUC_R_SQUARED 0.412, 0.538, read-out: LUCIFERASE INFECTION ASSAY - IC50): 5.36 µM"
CCOC(=O)C1=C(C)NC(C)=C(C(=O)OCC)C1C(=O)OCC(=O)NC12CC3CC(CC(C3)C1)C2,> 10 µM,"IC50 (HEPG2TOX_HILL_SLOPE 2.54, HEPG2TOX_R_SQUARED 0.735, read-out: LUCIFERASE INFECTION ASSAY - IC50): > 10 µM"
CSc1nc(=O)nc(-c2ccc(Cl)cc2)[nH]1,> 13 µM,IC50 [1]: > 13 µM
COc1ccc(NC(=O)c2nnc(CSc3nc(C)cc(-c4ccccc4)n3)s2)cc1,0.616 µM,"IC50 (HEPG2TOX_HILL_SLOPE 2.12, HEPG2TOX_R_SQUARED 0.961, PBLUC_HILL_SLOPE 18.1, PBLUC_R_SQUARED 0.668, read-out: LUCIFERASE INFECTION ASSAY - IC50): 0.546 µM"
Cc1c(Cl)c(=O)[nH]c2ccccc12,> 17 µM,"IC50 (HEPG2TOX_HILL_SLOPE 0.732, HEPG2TOX_R_SQUARED 0.944, PBLUC_HILL_SLOPE 0.944, PBLUC_R_SQUARED 0.141, read-out: LUCIFERASE INFECTION ASSAY - IC50): > 17 µM"
COc1cc(OC)nc(Nc2nc(C(N)Cc3ccccc3)cs2)n1 (centres undefined),7.54 µM,"IC50 (PBLUC_HILL_SLOPE 4.21, PBLUC_R_SQUARED 0.584, read-out: LUCIFERASE INFECTION ASSAY - IC50): 4.47 µM"
COc1ccc(C(=O)C(/C=N/N)=N/Nc2cc(C)cc(C)c2)cc1,5.98 µM,"IC50 (HEPG2TOX_HILL_SLOPE 2.41, HEPG2TOX_R_SQUARED 0.984, PBLUC_HILL_SLOPE 5.05, PBLUC_R_SQUARED 0.51, read-out: LUCIFERASE INFECTION ASSAY - IC50): 3.87 µM"
c1ccc2c(NCCNc3ncnc4ccccc34)cccc2c1,4.93 µM,"IC50 (HEPG2TOX_HILL_SLOPE 0.364, HEPG2TOX_R_SQUARED 0.666, PBLUC_HILL_SLOPE 0.695, PBLUC_R_SQUARED 0.76, read-out: LUCIFERASE INFECTION ASSAY - IC50): 0.209 µM"
O=[N+]([O-])c1cccc(-c2csc(CS(=O)(=O)c3cccs3)n2)c1,> 9.01 µM,IC50 [1]: > 9.01 µM
O=C(NCc1nccs1)c1nn(Cc2ccccc2)c2c1CN(C(=O)c1cc3ccccc3[nH]1)CC2,> 6.65 µM,"IC50 (PBLUC_HILL_SLOPE 8.98, PBLUC_R_SQUARED 0.075, read-out: LUCIFERASE INFECTION ASSAY - IC50): 5.69 µM"
Cc1c(Cl)cccc1/N=C1\SCCN1C(=O)C(c1ccccc1)c1ccccc1,> 10 µM,"IC50 (HEPG2TOX_HILL_SLOPE 4.09, HEPG2TOX_R_SQUARED 0.235, read-out: LUCIFERASE INFECTION ASSAY - IC50): > 10 µM"
CCc1cccc2c(C(=O)COC(=O)C34CC5CC(CC(O)(C5)C3)C4)c[nH]c12,4.59 µM,"IC50 (HEPG2TOX_HILL_SLOPE 2.99, HEPG2TOX_R_SQUARED 0.981, PBLUC_HILL_SLOPE 3.51, PBLUC_R_SQUARED 0.785, read-out: LUCIFERASE INFECTION ASSAY - IC50): 2.46 µM"
N#Cc1c(SCC(=O)c2ccc(F)c(F)c2)nc2c(c1-c1cccs1)CCCC2,> 7.74 µM,"IC50 (PBLUC_HILL_SLOPE 15.7, PBLUC_R_SQUARED 0.483, read-out: LUCIFERASE INFECTION ASSAY - IC50): 7.6 µM"
